The NIST ThermoML archive (doi:10.1021/je8000975)
“And” between values parts separate entries of the source, which are not always exact repeats. Equal values may be shown once.

Experiment: xn = mol fraction of the nth substance listed
Conditions: 101 kPa, Liquid

CCCOCCO [2-propoxyethanol] + CCCCOCCCC
Conditions	mass density
293.15 K, x1 = 0.0625	774.485 kg/m3
293.15 K, x1 = 0.1231	780.612 kg/m3
293.15 K, x1 = 0.1827	786.927 kg/m3
293.15 K, x1 = 0.2394	793.199 kg/m3
293.15 K, x1 = 0.2492	794.319 kg/m3
293.15 K, x1 = 0.2944	799.55 kg/m3
293.15 K, x1 = 0.2949	799.613 kg/m3
293.15 K, x1 = 0.3486	806.069 kg/m3
293.15 K, x1 = 0.4023	812.805 kg/m3
293.15 K, x1 = 0.4544	819.603 kg/m3
293.15 K, x1 = 0.4567	819.921 kg/m3
293.15 K, x1 = 0.5556	833.65 kg/m3
293.15 K, x1 = 0.599	840.02 kg/m3
293.15 K, x1 = 0.6019	840.448 kg/m3
293.15 K, x1 = 0.6498	847.778 kg/m3
293.15 K, x1 = 0.6536	848.363 kg/m3
293.15 K, x1 = 0.7431	862.909 kg/m3
293.15 K, x1 = 0.8304	878.188 kg/m3
293.15 K, x1 = 0.8329	878.643 kg/m3
293.15 K, x1 = 0.875	886.46 kg/m3
293.15 K, x1 = 0.9173	894.637 kg/m3
293.15 K, x1 = 0.9567	902.506 kg/m3
293.15 K, x1 = 0.9568	902.528 kg/m3
298.15 K, x1 = 0.0551	769.407 kg/m3
298.15 K, x1 = 0.0626	770.132 kg/m3
298.15 K, x1 = 0.1039	774.248 kg/m3
298.15 K, x1 = 0.1246	776.381 kg/m3
298.15 K, x1 = 0.1556	779.622 kg/m3
298.15 K, x1 = 0.2367	788.484 kg/m3
298.15 K, x1 = 0.2393	788.779 kg/m3
298.15 K, x1 = 0.2922	794.872 kg/m3
298.15 K, x1 = 0.3545	802.367 kg/m3
298.15 K, x1 = 0.4014	808.252 kg/m3
298.15 K, x1 = 0.4031	808.491 kg/m3
298.15 K, x1 = 0.455	815.247 kg/m3
298.15 K, x1 = 0.5006	821.438 kg/m3
298.15 K, x1 = 0.5043	821.944 kg/m3
298.15 K, x1 = 0.5521	828.692 kg/m3
298.15 K, x1 = 0.6483	843.112 kg/m3
298.15 K, x1 = 0.6976	850.944 kg/m3
298.15 K, x1 = 0.6984	851.074 kg/m3
298.15 K, x1 = 0.6993	851.218 kg/m3
298.15 K, x1 = 0.7502	859.679 kg/m3
298.15 K, x1 = 0.7902	866.584 kg/m3
298.15 K, x1 = 0.8325	874.153 kg/m3 and 874.166 kg/m3
298.15 K, x1 = 0.9152	889.815 kg/m3
298.15 K, x1 = 0.9163	890.027 kg/m3
298.15 K, x1 = 0.9571	898.214 kg/m3
298.15 K, x1 = 0.9581	898.407 kg/m3
303.15 K, x1 = 0.0645	765.959 kg/m3
303.15 K, x1 = 0.1249	772.015 kg/m3
303.15 K, x1 = 0.1826	778.083 kg/m3
303.15 K, x1 = 0.2383	784.22 kg/m3 and 784.216 kg/m3
303.15 K, x1 = 0.3481	797.121 kg/m3
303.15 K, x1 = 0.4032	804.021 kg/m3
303.15 K, x1 = 0.4542	810.67 kg/m3
303.15 K, x1 = 0.4567	810.994 kg/m3
303.15 K, x1 = 0.5058	817.67 kg/m3
303.15 K, x1 = 0.5547	824.595 kg/m3
303.15 K, x1 = 0.5548	824.612 kg/m3
303.15 K, x1 = 0.5997	831.213 kg/m3
303.15 K, x1 = 0.6542	839.567 kg/m3
303.15 K, x1 = 0.6988	846.673 kg/m3
303.15 K, x1 = 0.7434	854.06 kg/m3
303.15 K, x1 = 0.7899	862.072 kg/m3
303.15 K, x1 = 0.8319	869.613 kg/m3
303.15 K, x1 = 0.8764	877.879 kg/m3
303.15 K, x1 = 0.9168	885.687 kg/m3 and 885.692 kg/m3
303.15 K, x1 = 0.9553	893.42 kg/m3
303.15 K, x1 = 0.9575	893.858 kg/m3

COCCOCCO [2-(2-methoxyethoxy)ethanol] + COCCO
Conditions	mass density [kg/m3]
293.15 K, x2 = 0.1005	1016.02
293.15 K, x2 = 0.1489	1014.09
293.15 K, x2 = 0.1983	1012.06
293.15 K, x2 = 0.2003	1011.98
293.15 K, x2 = 0.2517	1009.77
293.15 K, x2 = 0.2969	1007.77
293.15 K, x2 = 0.2993	1007.67
293.15 K, x2 = 0.3475	1005.45
293.15 K, x2 = 0.3505	1005.31
293.15 K, x2 = 0.3985	1003.01
293.15 K, x2 = 0.45	1000.45
293.15 K, x2 = 0.5003	997.85
293.15 K, x2 = 0.5998	992.362
293.15 K, x2 = 0.6476	989.566
293.15 K, x2 = 0.6993	986.398
293.15 K, x2 = 0.7475	983.311
293.15 K, x2 = 0.7485	983.242
293.15 K, x2 = 0.7971	979.992
293.15 K, x2 = 0.8465	976.527
293.15 K, x2 = 0.8977	972.767
293.15 K, x2 = 0.9483	968.858
298.15 K, x2 = 0.0523	1013.47
298.15 K, x2 = 0.1027	1011.52
298.15 K, x2 = 0.1523	1009.54
298.15 K, x2 = 0.1974	1007.67
298.15 K, x2 = 0.2507	1005.39
298.15 K, x2 = 0.294	1003.47
298.15 K, x2 = 0.3472	1001.02
298.15 K, x2 = 0.3976	998.612
298.15 K, x2 = 0.4502	995.991
298.15 K, x2 = 0.4981	993.508
298.15 K, x2 = 0.5	993.405
298.15 K, x2 = 0.5455	990.948
298.15 K, x2 = 0.5989	987.943
298.15 K, x2 = 0.6471	985.114
298.15 K, x2 = 0.7005	981.838
298.15 K, x2 = 0.749	978.717
298.15 K, x2 = 0.7983	975.395
298.15 K, x2 = 0.846	972.046
298.15 K, x2 = 0.8832	969.324
298.15 K, x2 = 0.8956	968.391
298.15 K, x2 = 0.9483	964.311
303.15 K, x2 = 0.0536	1008.92
303.15 K, x2 = 0.1018	1007.06
303.15 K, x2 = 0.15	1005.13
303.15 K, x2 = 0.2011	1003.02
303.15 K, x2 = 0.2499	1000.92
303.15 K, x2 = 0.2515	1000.85
303.15 K, x2 = 0.301	998.636
303.15 K, x2 = 0.3527	996.24
303.15 K, x2 = 0.3986	994.036
303.15 K, x2 = 0.4493	991.5
303.15 K, x2 = 0.5028	988.711
303.15 K, x2 = 0.5499	986.158
303.15 K, x2 = 0.6	983.323
303.15 K, x2 = 0.6482	980.488
303.15 K, x2 = 0.6941	977.672
303.15 K, x2 = 0.7485	974.182
303.15 K, x2 = 0.7979	970.854
303.15 K, x2 = 0.8989	963.546
303.15 K, x2 = 0.9476	959.766
